# From patent publication US6773721B1, “Osmotic caplet” (ALZA Corporation, priority 1992, dated 2004)
# Assay: Osmotic pressure of saturated solutions by vapor pressure osmometer
# Assay type: physicochemical
# Conditions: saturated solution in water at 37° C.; Model 320B Vapor Pressure Osmometer
# Protocol: The osmagent is initially present in excess and it can be any physical form such as particle, crystal, pellet, tablet, strip, film or granule. […] In the table, the osmotic pressure π, is in atmospheres, ATM. The osmotic pressure is measured in a commercially available osmometer that measures the vapor pressure difference between pure water and the solution to be analyzed, and according to standard thermodynamic principles, the vapor pressure ratio is converted into osmotic pressure difference. […] The osmometer used for the present measurements is identified as Model 320B, Vapor Pressure Osmometer, manufactured by Hewlett Packard Co., Avondale, Pa.
row,Molecule,OSMOTIC PRESSURE
1,O=C(CO)[C@@H](O)[C@H](O)[C@H](O)CO [Fructose],355 ATM
2,OC[C@@H](O)[C@@H](O)[C@H](O)[C@H](O)CO [Mannitol],38 ATM
3,[Cl-].[K+] [Potassium Chloride],245 ATM
4,O=S(=O)([O-])[O-].[K+].[K+] [Potassium Sulfate],39 ATM
5,[Cl-].[Na+] [Sodium Chloride],356 ATM
6,O=P([O-])([O-])O.[Na+].[Na+] [Sodium Phosphate Dibasic Anhydrous],29 ATM
7,O.O.O.O.O.O.O.O=P([O-])([O-])O.[Na+].[Na+] [Sodium Phosphate Dibasic.7H2O],31 ATM
8,O.O.O.O.O.O.O.O.O.O.O.O.O=P([O-])([O-])O.[Na+].[Na+] [Sodium Phosphate Dibasic.12H2O],31 ATM
9,O.O.O.O.O.O.O.O.O.O.O.O.O=P([O-])([O-])[O-].[Na+].[Na+].[Na+] [Sodium Phosphate Tribasic.12H2O],36 ATM
10,Sodium Phosphate Monobasic.H2O,28 ATM
